Assay results taken from PubChem BioAssay (NCI).
Values joined by “and” are separate entries in the source; they are usually repeats but may differ in a detail not shown here. Equal entries are not always repeated.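 Results reflect a 48-hour exposure of cells in 96-well plates to compound at five concentrations. Here, GI50 denotes the concentration required for 50% inhibition of growth. At the TGI there is no net growth.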

Key:
Test in all cases: NCI anticancer screen, dose series, 48 h
EKVX NSCLC = test system: EKVX NSCLC
HOP-92 NSCLC = test system: HOP-92 NSCLC
SK-MEL-28 melanoma = test system: SK-MEL-28 melanoma
LOX IMVI melanoma = test system: LOX IMVI melanoma
UACC-257 melanoma = test system: UACC-257 melanoma
SF-295 CNS = test system: SF-295 CNS
A498 renal = test system: A498 renal
TK-10 renal = test system: TK-10 renal
OVCAR-3 ovarian = test system: OVCAR-3 ovarian
RPMI-8226 leukemia = test system: RPMI-8226 leukemia

SMILES | GI50 (EKVX NSCLC) | TGI (EKVX NSCLC) | GI50 (HOP-92 NSCLC) | TGI (HOP-92 NSCLC) | GI50 (SK-MEL-28 melanoma) | TGI (SK-MEL-28 melanoma) [µM] | GI50 (LOX IMVI melanoma) | TGI (LOX IMVI melanoma) | GI50 (UACC-257 melanoma) | GI50 (SF-295 CNS) | TGI (SF-295 CNS) [µM] | GI50 (A498 renal) [µM] | TGI (A498 renal) | GI50 (TK-10 renal) | TGI (TK-10 renal) | GI50 (OVCAR-3 ovarian) [µM] | TGI (OVCAR-3 ovarian) [µM] | GI50 (RPMI-8226 leukemia) | TGI (RPMI-8226 leukemia) [µM] | TGI (UACC-257 melanoma) [µM]
Cc1c(CN2CCC(Nc3ncnc4sc(CC(F)(F)F)cc34)CC2)ccc2c1cc(C#N)n2Cc1cn[nH]c1 | 1.92 µM and 3.08 µM | 21.2 µM and > 43.4 µM | 3.81 µM and 1.09 µM | 25.1 µM and > 25.9 µM | 2.2 µM and 5 µM | 6.28 | 1.35 µM and 2.36 µM | 2.88 µM and 7.5 µM | 1.37 µM and 5.31 µM | 2.72 µM and 3.06 µM | 14.9 | 7.55 | 79.4 µM and > 39.1 µM | 11.6 µM and > 35.2 µM | 26.2 µM and > 52.3 µM | 10.4 | 24 | 0.832 µM and 0.896 µM | 4.47 | –
Fc1ccc(-c2nnc3sc(-c4cccc(Cl)c4)nn23)cc1Cl | > 100 µM | > 100 µM | 33.7 µM | 89.6 µM | > 100 µM | > 100 | > 100 µM | > 100 µM | > 100 µM | > 100 µM | > 100 | > 100 | > 100 µM | > 100 µM | > 100 µM | > 100 | > 100 | > 100 µM | > 100 | > 100
CN1CCN(Cc2ccc(NC(=O)c3[nH]ncc3Nc3ncnc4c3CCC4)cc2)CC1 | 2.38 µM | 6.6 µM | 4.43 µM | 8.33 µM | 2.61 µM | 13.1 | 0.817 µM | 3.1 µM | 3.49 µM | 2.24 µM | 12 | 1.6 | 4.45 µM | 4.02 µM | 8.85 µM | 1.09 | 4.6 | 2.82 µM | 7.39 | 15.4
O=C(Nc1ccncc1)C(=O)c1cn(S(=O)(=O)c2ccccc2F)c2ccccc12 | 3.72 µM | > 100 µM | 2.93 µM | 60.2 µM | 3.59 µM | 49.1 | – | > 100 µM | 5.51 µM | 2.11 µM | 10.2 | 5.47 | 63.3 µM | 9.71 µM | > 49.3 µM | 0.893 | 6.85 | 2.54 µM | > 32.7 | > 78.4
CCOC(=O)[C@@H](C)C[C@H](Cc1ccccc1)NC(=O)c1csc([C@@H](C[C@H](C(C)C)N(C)C(=O)[C@H](CCC(C)C)NC(=O)[C@H]2CCCCN2C)OC(C)=O)n1 | 0.0153 µM | > 33.3 µM | 0.658 µM | 23.3 µM | – | – | 0.0133 µM | 4.85 µM | 4.24 µM | 0.00575 µM | 3.68 | 0.00419 | 0.0226 µM | 4.12 µM | > 33.3 µM | < 0.00333 | 0.0335 | < 0.00333 µM | 3.83 | 10.3
c1cncc(C(Nc2cccc3cccnc23)Nc2cccc3cccnc23)c1 | – | > 100 µM | – | > 100 µM | – | – | – | > 100 µM | – | – | > 100 | – | – | – | > 100 µM | – | > 100 | – | > 100 | > 100
CC(=O)O[C@@H]1CC(C)C2CC2C2=C(C(O)OC2O)[C@@H]1C(C)CCC=C(C)C (stereo not given in full) | – | > 100 µM | – | 35.5 µM | – | > 100 | – | 40.9 µM | – | – | – | – | > 100 µM | – | 90 µM | – | – | – | 59.1 | 62.9
COC1=C(C(=O)OC(C)(C)C)[C@]2(C)C(C(=O)OC(C)(C)C)C(OC)=C(C(=O)OC(C)(C)C)[C@]2(C)C1C(=O)OC(C)(C)C (stereo not given in full) | – | > 100 µM | – | > 100 µM | – | – | – | > 100 µM | – | – | > 100 | – | > 100 µM | – | > 100 µM | – | > 100 | – | > 100 | > 100
N#CC1(c2nc3ccccc3o2)C(=O)C(=O)N(c2ccc(Cl)c(Cl)c2)C(=O)C1=O | – | > 100 µM | – | > 100 µM | – | > 100 | – | > 100 µM | – | – | > 100 | – | – | – | > 100 µM | – | > 100 | – | > 100 | > 100
O=C(CNC(=O)c1cccc2ccccc12)Nc1ccccc1Oc1ccccc1 | 0.778 µM | > 10 µM | 2.22 µM | > 10 µM | 0.813 µM | > 10 | 0.307 µM | > 10 µM | – | 0.25 µM | > 10 | 0.256 | > 10 µM | 0.619 µM | > 10 µM | 0.19 | 0.638 | 0.318 µM | > 10 | –
O=C1NC2(O)c3ccccc3C(=O)C2(O)N1c1ccccc1 (stereo not given) | – | > 100 µM | – | > 100 µM | – | > 100 | – | > 100 µM | – | – | > 100 | – | – | – | > 100 µM | – | > 100 | – | > 100 | > 100
O=C(Nc1ccc(Nc2ccncc2)cc1)c1ccc(Nc2ccnc3ccc([N+](=O)[O-])cc23)cc1 | > 100 µM | > 100 µM | > 100 µM | > 100 µM | 63.8 µM | > 100 | > 100 µM | > 100 µM | > 100 µM | – | – | > 100 | > 100 µM | > 100 µM | > 100 µM | 6.35 | > 100 | > 100 µM | > 100 | > 100
COc1ccc(/C=C2\CNC/C(=C\c3ccc(OC)cc3)C2=O)cc1 | – | > 100 µM | – | > 100 µM | – | > 100 | – | 21.1 µM | – | – | > 100 | – | – | – | > 100 µM | – | > 100 | – | > 100 | > 100
Cc1c(Cl)cccc1NC(=O)c1sc2nc3c(cc2c1N)CCCCCC3 | 0.234 µM | > 50 µM | 0.164 µM | 16.1 µM | 4.59 µM | > 50 | 0.3 µM | > 50 µM | – | 0.168 µM | 13 | 0.202 | 9.16 µM | 10.7 µM | 47.4 µM | 0.174 | 1.21 | 0.166 µM | > 50 | –
Cc1cc(S(=O)(=O)NC#N)c(S/C(=N\Nc2ccc([N+](=O)[O-])cc2)c2ccccc2)cc1Cl | 17.2 µM | 34.7 µM | 10.7 µM | 32.7 µM | 17.2 µM | 37.4 | 15.4 µM | 28.8 µM | 35.9 µM | 15.9 µM | 34 | – | – | 16 µM | 38.3 µM | 14.2 | 30.5 | 19.5 µM | 61.8 | > 100
